Assay results as given in patent publication EP4768484A1, “HETEROCYCLIC FUSED RING COMPOUND, AND COMPOSITION AND USE THEREOF” (Shenzhen TargetRx, Inc., priority 2023, dated 2025).

How the values were obtained:
Type in all cases: cell-based
K562 cells = assay: Cell growth inhibitory activity assay (CellTiter-Glo), K562 cells; conditions: Homo sapiens, 72 h, CTG cell viability
Protocol: (§1) In this assay, the Celltiter-Glo (CTG) kit provided by Promega was used, and it is a homogeneous cell viability assay method. The cell viability of cultured cells was measured by quantifying ATP. K562 cells were purchased from Nanjing Kebai, product number CBP60529; Ba/F3 parental cells were purchased from RIKEN BRC, product number RCB0805; other cells containing BCR-ABL1 WT, BCR-ABL1 T315I, BCR-ABL1 T315M, BCR-ABL1 Y253H/E255K, BCR-ABL1 E255V/T3151, BCR-ABL1 A424T, BCR-ABL1 A337V, BCR-ABL1 P465S, BCR-ABL1 V468F, and BCR-ABL1 I502L were all monoclonal engineered cell lines obtained by transducting Ba/F3 parental cells with the lentivirus plasmids containing WT or corresponding mutated BCR-ABL1.
(§2) The steps of cell viability assay are as follows: • a) Cells in logarithmic growth phase were collected. Cell suspension was prepared and the cells were counted. Concentration of the cells was calculated. • b) The cell suspension was diluted to the required concentration and then added to the middle wells of a 96-well plate, and PBS was added to the edge wells. The wells with no cells and only culture medium were used as blank controls. • c) In addition to the cell plate used for compound analysis, another 96-well plate was prepared as a T0 plate, and 3-6 blank wells and 3-6 cell wells were added. The next day, CTG was used to test the cell viability as the T0 viability value of the cells. • d) The cell plate was incubated at 37 °C in a 5% CO2 incubator overnight. • e) The next day, each concentration of a compound subjected to a gradient dilution was added, and the cell plate was incubated at 37 °C in a 5% CO2 incubator for 72 h. The wells with no compound and only 0.5% DMSO were used as positive controls for cell growth. • f) CTG reagent (CellTiter-Glo kit) was added according to the manufacturer's instructions to test the cell viability value. • g) The plate was read using Biotek cytation3.0 microplate reader and the data were exported. • h) IC50 was calculated using GraphPad Prism 7.0 software.
(§3) The IC50 (half-maximal inhibitory concentration) of the compound was obtained using the following nonlinear fitting formula: Y = Bottom + (Top−Bottom)/(1+10^(∧)((LogIC50−X)*HillSlope)) [formula] • X: Log value of the compound concentration • Y: Inhibition rate (% inhibition) • Top: Maximum response • Bottom: Baseline response • HillSlope: Slope of the curve
(§4) The formula for calculating cell inhibition rate (inhibition rate %) was: [formula]

Ba/F3 parental cells = assay: Cell growth inhibitory activity assay (CellTiter-Glo), Ba/F3 parental cells; conditions: Mus musculus, BaF3, 72 h, CTG cell viability, read-out: IC50 Ba/F3 BCR-ABL1 Parental
Protocol: as §1, §2, §3, §4

Ba/F3 BCR-ABL1 T315I = biological target: T1, Ba/F3 BCR-ABL1 T315I (Homo sapiens, UniProt P00519+P11274, T315I); assay: Cell growth inhibitory activity assay (CellTiter-Glo), Ba/F3 BCR-ABL1 T315I cells; conditions: 72 h, CTG cell viability
T1 construct: BCR (N-terminal fusion partner of the oncoprotein); expressed in transfected cells; host or cells: Ba/F3 (lentiviral transduction, monoclonal line)
Protocol: as §1, §2, §3, §4

Ba/F3 BCR-ABL1 WT = biological target: T2, Ba/F3 BCR-ABL1 WT (Homo sapiens, UniProt P00519+P11274); assay: Cell growth inhibitory activity assay (CellTiter-Glo), Ba/F3 BCR-ABL1 WT cells; conditions: 72 h, CTG cell viability
T2 construct: BCR (N-terminal fusion partner of the oncoprotein); expressed in transfected cells; host or cells: Ba/F3 (lentiviral transduction, monoclonal line)
Protocol: as §1, §2, §3, §4

IC50 (K562 cells) [nM] | Compound | IC50 (Ba/F3 parental cells) [nM] | IC50 (Ba/F3 BCR-ABL1 T315I) [nM] | IC50 (Ba/F3 BCR-ABL1 WT) [nM]
≤ 5 | O=C(Nc1ccc(OC(F)(F)Cl)cc1)c1cnc(N2CC[C@@H](F)C2)c(-c2cnc3c(c2)-c2nn(-c4ncc(N5CC[C@H](F)C5)cn4)cc2C3)c1 [T-55, N-(4-(chlorodifluoromethoxy)phenyl)-6-((R)-3-fluoropyrrolidin-1-yl)-5-(2-(5-((S)-3-fluoropyrrolidin-1-yl)pyrimidin-2-yl)-2,4-dihydropyrazolo[3',4':3,4]cyclopenta[1,2-b]pyridin-7-yl)nicotinamide] | > 1000 | 5 to 50 | ≤ 5
≤ 5 | C[C@@H]1COCc2nc3cc(C(=O)Nc4ccc(OC(F)(F)Cl)cc4)cc(-c4cnc5c(c4)-c4nn(C(=O)C6CC6)cc4C5)c3n21 [T-47, (R)-N-(4-(chlorodifluoromethoxy)phenyl)-6-(2-(cyclopropylcarbonyl)-2,4-dihydropyrazolo[3',4':3,4]cyclopenta[1,2-b]pyridin-7-yl)-4-methyl-3,4-dihydro-1H-benzo[4,5]imidazo[2,1-c][1,4]oxazine-8-carboxamide] | > 1000 | ≤ 5 | ≤ 5
≤ 5 | CC(C)n1cc2c(n1)-c1cc(-c3cc(C(=O)Nc4ccc(OC(F)(F)Cl)cc4)cnc3N3CC[C@@H](F)C3)cnc1C2 [T-10-B, (R)-N-(4-(chlorodifluoromethoxy)phenyl)-6-(3-fluoropyrrolidin-1-yl)-5-(2-isopropyl-2,4-dihydropyrazolo[3',4':3,4]cyclopenta[1,2-b]pyridin-7-yl)nicotinamide] | > 1000 | ≤ 5 | ≤ 5
≤ 5 | C[C@@H]1COCc2nc3cc(C(=O)Nc4ccc(OC(F)(F)Cl)cc4)cc(-c4cnc5c(c4)-c4nn(-c6nccc(-c7ccc(F)nc7)n6)cc4C5)c3n21 [T-94, (R)-N-(4-(chlorodifluoromethoxy)phenyl)-6-(2-(4-(6-fluoropyridin-3-yl)pyrimidin-2-yl)-2,4-dihydropyrazolo[3',4':3,4]cyclopenta[1,2-b]pyridin-7-yl)-4-methyl-3,4-dihydro-1H-benzo[4,5]imidazo[2,1-c][1,4]oxazine-8-carboxamide] | > 1000 | ≤ 5 | ≤ 5
≤ 5 | CCC(=O)n1cc2c(n1)-c1cc(-c3cc(C(=O)Nc4ccc(OC(F)(F)Cl)cc4)cc4nc5n(c34)[C@H](C)COC5)cnc1C2 [T-45, (R)-N-(4-(chlorodifluoromethoxy)phenyl)-4-methyl-6-(2-propionyl-2,4-dihydropyrazolo[3',4':3,4]cyclopenta[1,2-b]pyridin-7-yl)-3,4-dihydro-1H-benzo[4,5]imidazo[2,1-c][1,4]oxazine-8-carboxamide] | > 1000 | ≤ 5 | ≤ 5
≤ 5 | Cc1ccc(-n2cc3c(n2)-c2cc(-c4cc(C(=O)Nc5ccc(OC(F)(F)Cl)cc5)cc5nc6n(c45)[C@H](C)COC6)cnc2C3)nn1 [T-104-A, (R)-N-(4-(chlorodifluoromethoxy)phenyl)-4-methyl-6-(2-(6-methylpyridazin-3-yl)-2,4-dihydropyrazolo[3',4':3,4]cyclopenta[1,2-b]pyridin-7-yl)-3,4-dihydro-1H-benzo[4,5]imidazo[2,1-c][1,4]oxazine-8-carboxamide] | > 1000 | 5 to 50 | ≤ 5
≤ 5 | C[C@@H]1CN(C)Cc2nc3cc(C(=O)Nc4ccc(OC(F)(F)Cl)cc4)cc(-c4cnc5c(c4)C(=O)N(C4CC4)C5)c3n21 [T-36, (R)-N-(4-(chlorodifluoromethoxy)phenyl)-6-(6-cyclopropyl-5-oxo-6,7-dihydro-5H-pyrrolo[3,4-b]pyridin-3-yl)-2,4-dimethyl-1,2,3,4-tetrahydrobenzo[4,5]imidazo[1,2-a]pyrazine-8-carboxamide] | > 1000 | > 1000 | ≤ 5
≤ 5 | O=C(Nc1ccc(OC(F)(F)Cl)cc1)c1cnc(N2CC[C@@H](F)C2)c(-c2cnc3c(c2)-c2nn(-c4nccc(N5CCOCC5)n4)cc2C3)c1 [T-34, (R)-N-(4-(chlorodifluoromethoxy)phenyl)-6-(3-fluoropyrrolidin-1-yl)-5-(2-(4-morpholinopyrimidin-2-yl)-2,4-dihydropyrazolo[3',4':3,4]cyclopenta[1,2-b]pyridin-7-yl)nicotinamide] | > 1000 | ≤ 5 | ≤ 5
≤ 5 | C[C@@H]1COCc2nc3cc(C(=O)Nc4ccc(OC(F)(F)Cl)cc4)cc(-c4cnc5c(c4)-c4nn(-c6ncc7cccnc7n6)cc4C5)c3n21 [T-86, (R)-N-(4-(chlorodifluoromethoxy)phenyl)-4-methyl-6-(2-(pyrido[2,3-d]pyrimidin-2-yl)-2,4-dihydropyrazolo[3',4':3,4]cyclopenta[1,2-b]pyridin-7-yl)-3,4-dihydro-1H-benzo[4,5]imidazo[2,1-c][1,4]oxazine-8-carboxamide] | > 1000 | ≤ 5 | ≤ 5
≤ 5 | C[C@@H]1COCc2nc3cc(C(=O)Nc4ccc(OC(F)(F)Cl)cc4)cc(-c4cnc5c(c4)-c4nn(-c6ncc7ccn(C)c7n6)cc4C5)c3n21 [T-85, (R)-N-(4-(chlorodifluoromethoxy)phenyl)-4-methyl-6-(2-(7-methyl-7H-pyrrolo[2,3-d]pyrimidin-2-yl)-2,4-dihydropyrazolo[3',4':3,4]cyclopenta[1,2-b]pyridin-7-yl)-3,4-dihydro-1H-benzo[4,5]imidazo[2,1-c][1,4]oxazine-8-carboxamide] | > 1000 | ≤ 5 | ≤ 5
≤ 5 | O=C(Nc1ccc(OC(F)(F)Cl)cc1)c1cnc(N2CC[C@@H](F)C2)c(-c2cnc3c(c2)-c2nn(-c4nccc(-c5cccnc5)n4)cc2C3)c1 [T-9, (R)-N-(4-(chlorodifluoromethoxy)phenyl)-6-(3-fluoropyrrolidin-1-yl)-5-(2-(4-(pyridin-3-yl)pyrimidin-2-yl)-2,4-dihydropyrazolo[3',4':3,4]cyclopenta[1,2-b]pyridin-7-yl)nicotinamide] | > 1000 | ≤ 5 | ≤ 5
≤ 5 | C[C@@H]1COCc2nc3cc(C(=O)Nc4ccc(OC(F)(F)Cl)cc4)cc(-c4cnc5c(c4)-c4nn(-c6ncc7c(ccn7C)n6)cc4C5)c3n21 [T-84, (R)-N-(4-(chlorodifluoromethoxy)phenyl)-4-methyl-6-(2-(5-methyl-5H-pyrrolo[3,2-d]pyrimidin-2-yl)-2,4-dihydropyrazolo[3',4':3,4]cyclopenta[1,2-b]pyridin-7-yl)-3,4-dihydro-1H-benzo[4,5]imidazo[2,1-c][1,4]oxazine-8-carboxamide] | > 1000 | ≤ 5 | ≤ 5
≤ 5 | O=C(Nc1ccc(OC(F)(F)Cl)cc1)c1cnc(N2CC[C@@H](F)C2)c(-c2cnc3c(c2)-c2nn(-c4ncc5ccccc5n4)cc2C3)c1 [T-29, (R)-N-(4-(chlorodifluoromethoxy)phenyl)-6-(3-fluoropyrrolidin-1-yl)-5-(2-(quinazolin-2-yl)-2,4-dihydropyrazolo[3',4':3,4]cyclopenta[1,2-b]pyridin-7-yl)nicotinamide] | > 1000 | 5 to 50 | ≤ 5
5 to 50 | CC(C)n1cnc2cc(C(=O)Nc3ccc(OC(F)(F)Cl)cc3)cc(-c3cnccn3)c21 [T-23, N-(4-(chlorodifluoromethoxy)phenyl)-1-isopropyl-7-(pyrazin-2-yl)-1H-benzo[d]imidazole-5-carboxamide] | > 1000 | 50 to 1000 | ≤ 5

Compound | IC50 (K562 cells) [nM] | IC50 (Ba/F3 parental cells) [nM] | IC50 (Ba/F3 BCR-ABL1 T315I) [nM] | IC50 (Ba/F3 BCR-ABL1 WT) [nM]
CC1(C)C(=O)Nc2cc(C(=O)Nc3ccc(OC(F)(F)Cl)cc3)cc(-c3cnc4c(c3)-c3nn(-c5ncccn5)cc3C4)c21 [T-123, N-(4-(chlorodifluoromethoxy)phenyl)-3,3-dimethyl-2-oxo-4-(2-(pyrimidin-2-yl)-2,4-dihydropyrazolo[3',4':3,4]cyclopenta[1,2-b]pyridin-7-yl)indoline-6-carboxamide] | ≤ 5 | > 1000 | ≤ 5 | ≤ 5
